Source: patent publication US20240425529A1, “BORIC ACID DERIVATIVE” (SHOUYAO HOLDINGS (BEIJING) CO., LTD., priority 2021, published 2024)

Assays:
LMP7 [1] = biological target: T1, LMP7 (Homo sapiens, UniProt P28062); experiment: Enzymatic inhibitory activity on LMP7 (MOLT-4 cell lysate, Ac-ANW-AMC substrate); assay type: biochemical; conditions: 1 hour pre-incubation
T1 construct: using MOLT-4 cell lysate as the enzyme source of LMP7; endogenous in cells; host or cells: MOLT-4 (human acute lymphoblastic leukemia cells)
Source text: LMP7 is a catalytic subunit of immunoproteasomes. In this experiment, an enzymatic detection platform was established using its hydrolytic enzyme activity and used for compound activity detection. Using Ac-ANW-AMC (Bonston Biochem, Cat #S-320) as a substrate for LMP7, the amount of fluorescent group AMC (7-amino-4-methylcoumarin) released after hydrolysis can reflect the enzymatic activity. MOLT-4 cells are human acute lymphoblastic leukemia cells and have been identified as cells with high expression of LMP7. We established an enzymatic detection method for compound inhibition on LMP7 using MOLT-4 cell lysate as the enzyme source of LMP7 and detected the compound inhibitory activity (half inhibitory concentration, IC50).
(§1) MOLT-4 cells were cultured in a 75 cm^2 cell culture flask (Corning) (37° C., 95% air, and 5% CO2) with RPMI-1640 (Biological Industries) medium containing 10% fetal bovine serum (Biological Industries) and 1% Pen Strep (Gibco) and passaged 2-3 times one week. 1×10^7 MOLT-4 cells were collected, resuspended in 1 ml of PBS (Solarbio), and centrifuged at 3000 rpm for 5 minutes. The supernatant was aspirated off. The cells were resuspended in 500 μl of lysis buffer (20 mM Tris, pH 8.0, 5 mM EDTA, plus Protease inhibitor (1:1000) and Phosphatase Inhibitor (1:100) when used) and left on ice for 30 minutes. The cells were broken by supersonic technique, 0.5 S on, 0.5 S off, for 2.5 S. The centrifuge was performed at 12000 rpm, 4° C. for 10 minutes. The supernatant was the cell lysate and protein quantification was performed by using the BCA method (Thermo, #23225).
Compounds were diluted in a 5-fold gradient with 100% DMSO for a total of 9 concentrations: 2 W for each concentration was added to a 48-μl reaction buffer (20 mM Tris, pH 8.0, 0.5 mM EDTA) and mixed well as 4* compound (final concentrations: 2000, 400, 80, 16, 3.2, 0.64, 0.128, 0.0256, and 0 nM) for later use. A reaction buffer was used to prepare 4* MOLT-4 cell lysate at a final concentration of 20 ng/μl and 2*Ac-ANW-AMC at a final concentration of 100 µM. 5 μl of 4* compound was added to a 384-well plate (OptiPlate-384, purchased from PerkinElmer), added with 5 W of 4* cell lysate, centrifuged, and reacted in an incubator at 23° C. for 1 hour. 10 W of 2* Ac-ANW-AMC was added and the reaction was started by centrifugation at 23° C. in the dark for 2 hours. After completion of the reaction, the signal value (excitation wavelength 345 nm/emission wavelength 445 nm) was read on the CLARIO star^Plus (purchased from BMG LRBTECH). Enzyme activity was determined at 9 concentrations for each compound, and data were processed using the GraphPad Prism software to calculate the half inhibitory concentration of the compound on LMP7, i.e. the IC50 value.

β5 = biological target: T2, β5 (Homo sapiens, UniProt P28074); experiment: Enzymatic inhibitory activity on β5 (HEK-293 cell lysate, Ac-WLA-AMC substrate); assay type: biochemical; conditions: 1 hour pre-incubation
T2 construct: using HEK-293 cell lysate as the enzyme source of D5; endogenous in cells; host or cells: HEK-293 (human embryonic kidney cells)
Source text: β5 is a catalytic subunit of immunoproteasomes. In this experiment, an enzymatic detection platform was established using its hydrolytic enzyme activity and used for compound activity detection. Using Ac-WLA-AMC (Bonston Biochem, Cat #5-330) as a substrate for D5, the amount of fluorescent group AMC (7-amino-4-methylcoumarin) released after hydrolysis can reflect the enzymatic activity. […] We established an enzymatic detection method for compound inhibition on D5 using HEK-293 cell lysate as the enzyme source of D5 and detected the compound inhibitory activity (half inhibitory concentration, IC50). The enzymatic inhibitory activity of compounds against D5 was used as a measure index of compound selectivity.
as §1, with “HEK-293” for “MOLT-4”, “DMEM” for “RPMI-1640”, “performed” for “performed by”
Compounds were diluted in a 5-fold gradient with 100% DMSO for a total of 9 concentrations. 2 W for each concentration was added to a 48-μl reaction buffer (20 mM Tris, pH 8.0, 0.5 mM EDTA) and mixed well as 4* compound (final concentrations: 100000, 20000, 4000, 800, 160, 32, 6.4, 1.28, and 0 nM) for later use. A reaction buffer was used to prepare 4*HEK-293 cell lysate at a final concentration of 25 ng/μl and 2*Ac-WLA-AMC at a final concentration of 20 μM. 5 W of 4* compound was added to a 384-well plate (OptiPlate-384, purchased from PerkinElmer), added with 5 W of 4*HEK-293 cell lysate, centrifuged, and reacted in an incubator at 23° C. for 1 hour. 10 W of 2* Ac-WLA-AMC was added and the reaction was started by centrifugation at 23° C. in the dark for 2 hours. After completion of the reaction, the signal value (excitation wavelength 345 nm/emission wavelength 445 nm) was read on the CLARIO star^Plus (purchased from BMG LRBTECH). Enzyme activity was determined at 9 concentrations for each compound, and data were processed using the GraphPad Prism software to calculate the half inhibitory concentration of the compound on D5, i.e. the IC50 value.

LMP7 [2] = biological target: T1, LMP7; experiment: Cytological inhibitory activity on LMP7 in MOLT-4 cells; assay type: cell-based; conditions: incubation for 2 hours with compound, read-out: Cytological activity data LMP7 Activity (MOLT-4Cell)
Method: MOLT-4 are human acute lymphoblastic leukemia cells and have been identified as cells with high expression of LMP7. In this experiment, the compounds were pre-incubated with MOLT-4, and Ac-ANW-AMC (BonstonBiochem, Cat #S-320) was used as the substrate of LMP7 to establish the detection method for the enzymatic activity of LMP7 in cells and detect the compound inhibitory activity (half inhibitory concentration, IC50).
Cells were plated in a 24-well plate (Corning) at a concentration of 1.5×10^5/ml per well. The next day compounds were prepared and diluted in a 5-fold gradient from 2 mM in 100% DMSO for a total of 8 concentrations. 2 μl for each concentration of the compound was added to a 1-ml cell culture medium, supplemented with 1 ml of RPMI-1640 only (final FBS concentration 5%, v/v). The compounds were mixed with the cells. After incubation for 2 hours in the incubator, the cells were centrifuged at 2000 rpm for 8 minutes to discard the supernatant. The cells were washed once with 2 ml PBS (Solarbio), and centrifuged again to discard the supernatant. The cells were resuspended in 100 μl of lysis buffer (20 mM Tris, pH 8.0, 5 mM EDTA, plus Protease inhibitor (1: 100) and Phosphatase Inhibitor (1:100) when used) and left in a 4° C. refrigerator for 45 minutes.
After 2 min. of centrifuge at 2000 rpm, the lysate was transferred from the 24-well plate to a 96-well plate, and centrifuged at 2000 rpm, 4° C., for 15 min. The supernatant was the lysate. Protein quantification was performed using the BCA method (Thermo, #23225). A 2* lysate was prepared with the reaction buffer (20 mM Tris, pH 8.0, 0.5 mM EDTA) at a final concentration of 20 ng/μl. 2* Ac-ANW-AMC was prepared with the reaction buffer at a final concentration of 100 μM. 10 µl of 2* lysate was added to a 384-well plate (OptiPlate-384, purchased from PerkinElmer), and added with 10 W of 2* Ac-ANW-AMC. The reaction was started by centrifugation at 23° C. in the dark for 1 hour. After completion of the reaction, the signal value (excitation wavelength 345 nm/emission wavelength 445 nm) was read on the CLARIO starPlus (purchased from BMG LRBTECH). Enzyme activity was determined at 8 concentrations for each compound, and data were processed using the GraphPad Prism software to calculate the half inhibitory concentration of the compound on LMP7 hydrolase in MOLT-4 cells, i.e. the IC50 value.

Structure (SMILES)	IC50 (LMP7 [1]) [nM]	IC50 (β5) [nM]	IC50 (LMP7 [2]) [nM]
Cn1ccnc1NC(=O)C(=O)N[C@@H](Cc1coc2ccccc12)B(O)O [Ex. 37, (R)-(2-(benzofuran-3-yl)-1-(2-oxo-2-((1-methyl-1H-imidazol-2-yl)amino)acetamido)ethyl)boronic acid]	5.93	264	111
O=C(Nc1ncc(F)s1)C(=O)N[C@@H](Cc1coc2ccccc12)B(O)O [Ex. 34, (R)-(2-(benzofuran-3-yl)-1-(2-oxo-2-((5-fluorothiazol-2-yl)amino)acetamido)ethyl)boronic acid]	7.46	132	29.2
O=C(Nc1ncc(Cl)s1)C(=O)N[C@@H](Cc1coc2ccccc12)B(O)O [Ex. 36, (R)-(2-(benzofuran-3-yl)-1-(2-oxo-2-((5-chlorothiazol-2-yl)amino)acetamido)ethyl)boronic acid]	3.14	54.5	19.5
CNC(=O)C(=O)N[C@@H](Cc1coc2ccccc12)B(O)O [Ex. 2, (R)-(2-(benzofuran-3-yl)-1-(2-(methylamino)-2-oxoacetamido)ethyl)boronic acid]	26.9		
O=C(Nc1cccc2c1OCCO2)C(=O)N[C@@H](Cc1coc2ccccc12)B(O)O [Ex. 30, (R)-(2-(benzofuran-3-yl)-1-(2-oxo-2-((2,3-dihydrobenzo[b][1,4]dioxin-5-yl)amino)acetamido)ethyl)boronic acid]	5.61	24.6	8.77
O=C(Nc1cccnc1Cl)C(=O)N[C@@H](Cc1coc2ccccc12)B(O)O [Ex. 64, (R)-(2-(benzofuran-3-yl)-1-(2-oxo-2-((2-chloropyridin-3-yl)amino)acetamido)ethyl)boronic acid]	2.31	25.4	1.79
O=C(N[C@@H](Cc1coc2ccccc12)B(O)O)C(=O)N1CC2COCC2C1 (stereo partly drawn) [Ex. 29, (R)-(2-(benzofuran-3-yl)-1-(2-oxo-2-(tetrahydro-1H-furo[3,4-c]pyrrol-5(3H)-yl)acetamido)ethyl)boronic acid]	7.81	41.4	15.9
O=C(NC1CCOCC1)C(=O)N[C@@H](Cc1coc2ccccc12)B(O)O [Ex. 11, (R)-(2-(benzofuran-3-yl)-1-(2-oxo-2-((tetrahydro-2H-pyran-4-yl)amino)acetamido)ethyl)boronic acid]	7.3	123	
C[C@@H](NC(=O)C(=O)N[C@@H](Cc1coc2ccccc12)B(O)O)c1ccccn1 [Ex. 8, ((R)-2-(benzofuran-3-yl)-1-(2-oxo-2-(((R)-1-(pyridin-2-yl)ethyl)amino)acetamido)ethyl)boronic acid]	24.7		
CN(C)C(=O)C(=O)N[C@@H](Cc1coc2ccccc12)B(O)O [Ex. 6, (R)-(2-(benzofuran-3-yl)-1-(2-(dimethylamino)-2-oxoacetamido)ethyl)boronic acid]	28.5		
O=C1CC[C@H](N2C(=O)c3ccc(N4CCN(CC5CCN(C(=O)C(=O)N[C@@H](Cc6coc7ccccc67)B(O)O)CC5)CC4)cc3C2=O)C(=O)N1 [Ex. 16, ((R)-2-(benzofuran-3-yl)-1-(2-(4-((4-(2-((S)-2,6-dioxopiperidin-3-yl)-1,3-dioxoisoindolin-5-yl)piperazin-1-yl)methyl)piperidin-1-yl)-2-oxoacetamido)ethyl)boronic acid]	32.9	58.7	
CCN(CC)C(=O)C(=O)N[C@@H](Cc1coc2ccccc12)B(O)O [Ex. 4, (R)-(2-(benzofuran-3-yl)-1-(2-(diethylamino)-2-oxoacetamido)ethyl)boronic acid]	22.3		
O=C(N[C@H]1CCOC1)C(=O)N[C@@H](Cc1coc2ccccc12)B(O)O [Ex. 7, ((R)-2-(benzofuran-3-yl)-1-(2-oxo-2(((S)-tetrahydrofuran-3-yl)amino)acetamido)ethyl) boronic acid]	7.7	123	
CON(C)C(=O)C(=O)N[C@@H](Cc1coc2ccccc12)B(O)O [Ex. 3, (R)-(2-(benzofuran-3-yl)-1-(2-(methoxy(methyl)amino)-2-oxoacetamido)ethyl) boronic acid]	13	507	
